Reference: ChEMBL document CHEMBL1201862, “PubChem BioAssay data set” (2004)
Active and inactive are the calls of the source.

How the values were obtained:
[1] = tested on: BJ; test: cytotoxicity toward BJ-TERT fibroblasts, dose response, cell-based, RAS-independent, luminescence (AID 1933); type: functional, Homo sapiens; settings: Homo sapiens, BJ
[2] = target: Luciferin 4-monooxygenase (Photinus pyralis, UniProt P08659); test: Counter Screen for Luciferase-based Assay Positives. [Related pubchem assays: 620, 618, 411 ]
[3] = tested on: BJ; test: cells; type: functional, cell-based, Homo sapiens; settings: Homo sapiens, BJ
[4] = tested on: HT-1080; test: cytotoxicity in HT1080 fibrosarcoma cells, cell-based, fluorescence readout (AID 620); type: functional; settings: Homo sapiens
[5] = tested on: BJ; test: cytotoxicity toward BJ-TERT-LT-ST fibroblasts, dose response, cell-based, RAS-independent, luminescence (AID 1935); type: functional, Homo sapiens; settings: Homo sapiens, BJ;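 further: BJ fibroblasts immortalized with TERT plus LT and ST oncogenes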
[6] = cytotoxicity toward DRD oncogenic fibroblasts, dose response, cell-based, non-viral oncogenic, luminescence (AID 1934); type: functional; settings: Homo sapiens
[7] = cytotoxicity in HEK-293T cells, dose response, cytotoxicity control for TCR NF-kB inhibitor project, luminescence, T-cell screen hits (AID 489026); type: functional, cell-based;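 further: cells exposed to compound about 14 hours before the viability readout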
[8] = target: T1, Estrogen receptor beta (Homo sapiens, UniProt Q92731);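 further: recombinant ER-beta bound to coactivator SRC1 peptide in presence of estradiol agonist; inhibitors block coactivator peptide binding and lower the FRET signal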
[9] = target: T1, Estrogen receptor beta; test: ERβ–SRC-3 coactivator interaction inhibitors, confirmation, orthogonal assay, biochemical, ELISA, streptavidin-HRP readout (AID 1060)
[10] = target: DNA dC->dU-editing enzyme APOBEC-3A (Homo sapiens, UniProt P31941); test: Dose Response confirmation of small molecule APOBEC3A DNA Deaminase Inhibitors via a fluorescence-based single-stranded DNA deaminase assay. [Related pubchem assays (depositor defined):AID493011, AID493024]; type: functional
[11] = target: DNA dC->dU-editing enzyme APOBEC-3G (Homo sapiens, UniProt Q9HC16); type: functional;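 further: Dose-response counterscreen measuring inhibition of APOBEC3G DNA deaminase activity, run while confirming APOBEC3A inhibitors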
[12] = target: Photoreceptor-specific nuclear receptor (Homo sapiens, UniProt Q9Y5X4); type: functional;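 further: potency for compounds that break the NR2E3 corepressor complex and count as activators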
[13] = target: Peroxisome proliferator-activated receptor gamma/Nuclear receptor corepressor 2 (Homo sapiens, UniProt P37231+Q9Y618); type: functional
[14] = target: Lysosomal acid glucosylceramidase (Homo sapiens, UniProt P04062); test: Dose response cell-based high throughput screening assay to identify enhancers of beta-glucosidase activity. [Related pubchem assays: 784 ]; type: functional
[15] = target: Protein-tyrosine kinase 2-beta (Homo sapiens, UniProt Q14289);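 further: potency of inhibitors of PYK2 kinase phosphorylation of poly-GT substrate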
[16] = target: Cytochrome P450 2C19 (Homo sapiens, UniProt P33261); test: Cytochrome panel assay with activity outcomes. Panel member name: p450-cyp2c19 Compounds with AC50 equal or less than 10 uM are considered active; type: functional; settings: read-out: AC50
[17] = target: Cytochrome P450 2C9 (Homo sapiens, UniProt P11712)
[18] = Luminescence Cell-Based Dose Response to Identify Activators of 5'UTR Stem-Loop Driven Prion Protein mRNA Translation in H4-C Neuroglioblastoma Cells. [Related pubchem assays: 1829 (Project Summary), 1814 (Primary HTS)]; type: functional
[19] = tested on: H4; test: Luminescence Cell-Based Dose Response HTS to Identify Activators of 5'UTR Stem-Loop Driven Prion Protein mRNA Translation in H4 Neuroglioblastoma Cells. [Related pubchem assays: 1829 (Project Summary), 1814 (Primary HTS)]; type: functional; settings: Homo sapiens
[20] = Luminescence Cell-Based Dose Response to Identify Activators of Luciferase Translation or Activity in H4-C Neuroglioblastoma Cells. [Related pubchem assays: 1829 (Project Summary), 1814 (Primary HTS)]; type: functional
[21] = target: Prothrombin (Homo sapiens, UniProt P00734); test: Thrombin 1536 HTS Dose Response Confirmation. [Related pubchem assays: 1046 (Thrombin 1536 HTS; hits were confirmed in this assay)]; type: functional
[22] = Luminescence Cell-Based Dose Confirmation to Identify Activators of 5'UTR Stem-Loop Driven Alpha-Synuclein mRNA Translation in H4 Neuroglioblastoma Cells. [Related pubchem assays: 1829 (Project Summary), 1814 (Primary HTS)]; type: functional
[23] = tested on: HEK293; test: Fluorescence-based counterscreen for potentiators or agonists of NPY-Y2: cell-based high-throughput dose response assay to identify inhibitors of cyclic nucleotide gated ion channel (CNGC) activity. In this assay, the parental HEK293 cell line transfected with a cyclic-nucleotide gated ion channel (CNGC)-based cAMP sensor is used to measure inhibition of isoproterenol-induced CNGC activity by test compound.; type: functional; settings: Homo sapiens;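 further: stimulus is 1 µM isoproterenol at EC100 plus PDE inhibitor Ro 20-1724 at 25 µM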
[24] = tested on: Streptococcus sp. 'group A'; test: growth inhibition of control SK(-) GAS strain, dose response, counter-screen for streptokinase expression inhibitor project, luminescence, kanamycin, BacTiterGlo, confirmation (AID 1900); type: functional, organism-based
[25] = target: T2, Neuropeptide Y receptor type 2 (Homo sapiens, UniProt P49146); test: Fluorescence-based cell-based high-throughput dose response assay for agonists of NPY-Y2. [Related pubchem assays: 1703 (Screening assay (CNGC inhibitors).), 1359 (Screening assay (NPY-Y2 potentiators or agonists).), 1304 (Screening assay (NPY-Y1 potentiators or agonists).), 1710 (Screening assay (NPY-Y2 agonists).), 1791 (Summary AID.)]; type: functional
T2 sequence (P49146 whole entry): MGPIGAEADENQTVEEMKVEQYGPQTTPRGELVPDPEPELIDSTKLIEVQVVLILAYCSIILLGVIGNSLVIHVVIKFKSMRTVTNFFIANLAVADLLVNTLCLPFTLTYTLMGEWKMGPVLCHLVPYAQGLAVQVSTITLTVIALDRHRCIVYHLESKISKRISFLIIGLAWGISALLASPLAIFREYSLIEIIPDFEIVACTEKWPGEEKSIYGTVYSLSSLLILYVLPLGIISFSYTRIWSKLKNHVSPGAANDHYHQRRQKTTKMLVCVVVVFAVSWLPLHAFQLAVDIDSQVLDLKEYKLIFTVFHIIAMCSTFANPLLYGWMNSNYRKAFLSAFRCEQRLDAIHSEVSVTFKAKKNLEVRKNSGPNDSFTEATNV

[26] = target: T3, Streptokinase A (Streptococcus pyogenes serotype M1, UniProt P10520); test: S. pyogenes streptokinase expression inhibitors, potency, dose response, plasminogen activation absorbance, OD405 (AID 1914); type: functional, Streptococcus pyogenes M1 GAS;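 further: secreted streptokinase activity via plasminogen activation per viability signal from cell pellet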
T3 sequence (P10520 whole entry): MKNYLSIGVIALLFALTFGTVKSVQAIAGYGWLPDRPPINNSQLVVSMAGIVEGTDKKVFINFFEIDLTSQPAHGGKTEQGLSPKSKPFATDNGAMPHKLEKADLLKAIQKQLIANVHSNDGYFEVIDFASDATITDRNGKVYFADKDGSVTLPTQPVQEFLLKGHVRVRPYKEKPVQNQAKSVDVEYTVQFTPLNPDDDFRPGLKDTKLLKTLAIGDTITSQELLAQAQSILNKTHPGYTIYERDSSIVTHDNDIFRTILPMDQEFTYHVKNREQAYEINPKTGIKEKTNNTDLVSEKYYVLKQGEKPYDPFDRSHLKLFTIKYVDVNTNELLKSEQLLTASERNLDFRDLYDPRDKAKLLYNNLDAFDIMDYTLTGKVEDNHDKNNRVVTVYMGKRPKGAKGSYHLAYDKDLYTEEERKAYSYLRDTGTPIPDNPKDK

[27] = target: T4, Neuropeptide Y receptor type 1 (Homo sapiens, UniProt P25929); test: Fluorescence-based counterscreen for agonists of NPY-Y2: cell-based high-throughput dose response assay for agonists of NPY-Y1.; type: functional
T4 sequence (P25929 whole entry): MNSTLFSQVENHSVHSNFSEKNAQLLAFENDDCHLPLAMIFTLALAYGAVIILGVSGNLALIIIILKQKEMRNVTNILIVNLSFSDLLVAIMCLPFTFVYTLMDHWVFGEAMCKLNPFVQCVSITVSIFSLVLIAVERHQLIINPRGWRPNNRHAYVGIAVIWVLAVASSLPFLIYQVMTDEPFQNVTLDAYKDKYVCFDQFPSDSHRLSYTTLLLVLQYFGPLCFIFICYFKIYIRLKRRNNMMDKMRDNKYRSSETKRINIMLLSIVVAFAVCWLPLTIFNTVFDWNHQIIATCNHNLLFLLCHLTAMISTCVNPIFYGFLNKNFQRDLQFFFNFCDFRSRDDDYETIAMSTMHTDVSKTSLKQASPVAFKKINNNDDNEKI

[28] = tested on: Streptococcus; test: Group A Streptococcus viability loss, dose response, counter-screen for streptokinase expression inhibitor project, luminescence, BacTiterGlo (AID 1915); type: functional, organism-based;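 further: potency for reduction of bacterial viability or growth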
[29] = tested on: INS1; test: beta cell apoptosis inhibitors, cytokine rescue, dose response, luminescence, retest (AID 449756); type: functional, cell-based; settings: Rattus norvegicus;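 further: cell death triggered by IL-1 beta plus TNF-alpha plus IFN-gamma mixture; protective hits raise ATP signal compared with cytokine alone wells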

T1 sequence (Q92731 whole entry): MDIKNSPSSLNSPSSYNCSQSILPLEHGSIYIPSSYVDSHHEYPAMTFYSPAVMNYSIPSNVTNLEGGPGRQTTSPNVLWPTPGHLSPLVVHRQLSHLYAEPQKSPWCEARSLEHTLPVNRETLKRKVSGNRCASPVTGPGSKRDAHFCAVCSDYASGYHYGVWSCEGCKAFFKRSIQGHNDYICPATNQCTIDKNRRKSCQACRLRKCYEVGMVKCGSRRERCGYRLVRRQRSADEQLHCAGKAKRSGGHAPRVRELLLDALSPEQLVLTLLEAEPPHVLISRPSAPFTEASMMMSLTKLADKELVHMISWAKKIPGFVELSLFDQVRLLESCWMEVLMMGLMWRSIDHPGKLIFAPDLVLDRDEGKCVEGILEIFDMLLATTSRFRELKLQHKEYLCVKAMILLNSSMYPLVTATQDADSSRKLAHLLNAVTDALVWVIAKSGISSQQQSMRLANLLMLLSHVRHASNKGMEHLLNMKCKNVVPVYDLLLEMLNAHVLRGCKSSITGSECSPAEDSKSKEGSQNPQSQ
Chain of Protein-tyrosine kinase 2-beta (Q14289 whole entry): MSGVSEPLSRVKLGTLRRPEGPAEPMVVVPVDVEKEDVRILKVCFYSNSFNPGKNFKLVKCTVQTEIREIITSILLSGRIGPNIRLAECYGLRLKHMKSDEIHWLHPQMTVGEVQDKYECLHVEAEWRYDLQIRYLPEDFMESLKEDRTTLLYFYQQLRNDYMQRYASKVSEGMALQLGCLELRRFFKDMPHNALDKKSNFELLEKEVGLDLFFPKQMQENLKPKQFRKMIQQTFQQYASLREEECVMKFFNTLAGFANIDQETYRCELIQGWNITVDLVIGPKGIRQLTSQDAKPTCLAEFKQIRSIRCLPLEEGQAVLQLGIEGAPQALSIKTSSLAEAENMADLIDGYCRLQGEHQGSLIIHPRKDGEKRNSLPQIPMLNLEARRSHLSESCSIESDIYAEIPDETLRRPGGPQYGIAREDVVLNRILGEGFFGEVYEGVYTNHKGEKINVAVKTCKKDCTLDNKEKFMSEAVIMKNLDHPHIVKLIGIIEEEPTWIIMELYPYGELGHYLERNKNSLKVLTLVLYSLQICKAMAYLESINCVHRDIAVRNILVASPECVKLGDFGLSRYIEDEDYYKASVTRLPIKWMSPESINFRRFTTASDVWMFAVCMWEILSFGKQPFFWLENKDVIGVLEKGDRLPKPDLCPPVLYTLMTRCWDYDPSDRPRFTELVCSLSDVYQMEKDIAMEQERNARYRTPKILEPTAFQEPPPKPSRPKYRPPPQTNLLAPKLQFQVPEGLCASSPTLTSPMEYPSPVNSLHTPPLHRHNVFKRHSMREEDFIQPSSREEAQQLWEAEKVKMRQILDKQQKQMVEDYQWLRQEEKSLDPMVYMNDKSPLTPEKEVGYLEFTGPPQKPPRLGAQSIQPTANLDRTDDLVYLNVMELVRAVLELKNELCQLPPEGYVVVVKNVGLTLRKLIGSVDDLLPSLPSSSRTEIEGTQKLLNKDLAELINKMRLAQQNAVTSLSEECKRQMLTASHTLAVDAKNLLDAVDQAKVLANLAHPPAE
Chain of DNA dC->dU-editing enzyme APOBEC-3A (P31941 whole entry): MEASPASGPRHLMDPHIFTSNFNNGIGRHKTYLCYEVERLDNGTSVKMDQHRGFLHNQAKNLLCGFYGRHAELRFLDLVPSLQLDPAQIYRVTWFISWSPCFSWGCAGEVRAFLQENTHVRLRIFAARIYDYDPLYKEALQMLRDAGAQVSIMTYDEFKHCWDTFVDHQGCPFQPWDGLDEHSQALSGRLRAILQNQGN
Chain of Cytochrome P450 2C19 (P33261 whole entry): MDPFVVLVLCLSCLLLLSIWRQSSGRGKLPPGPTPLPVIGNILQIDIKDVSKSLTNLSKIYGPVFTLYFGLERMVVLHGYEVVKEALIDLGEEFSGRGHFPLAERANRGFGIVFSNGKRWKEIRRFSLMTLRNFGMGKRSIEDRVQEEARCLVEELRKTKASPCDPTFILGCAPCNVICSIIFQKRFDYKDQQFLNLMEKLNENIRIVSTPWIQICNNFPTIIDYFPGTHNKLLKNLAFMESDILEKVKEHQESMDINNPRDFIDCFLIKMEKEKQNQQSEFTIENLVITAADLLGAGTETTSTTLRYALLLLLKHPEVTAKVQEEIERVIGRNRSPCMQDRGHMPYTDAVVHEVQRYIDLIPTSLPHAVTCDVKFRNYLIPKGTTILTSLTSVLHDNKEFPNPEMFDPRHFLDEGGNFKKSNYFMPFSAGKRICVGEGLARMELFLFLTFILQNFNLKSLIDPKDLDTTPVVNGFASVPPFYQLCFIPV
Chain of Lysosomal acid glucosylceramidase (P04062 whole entry): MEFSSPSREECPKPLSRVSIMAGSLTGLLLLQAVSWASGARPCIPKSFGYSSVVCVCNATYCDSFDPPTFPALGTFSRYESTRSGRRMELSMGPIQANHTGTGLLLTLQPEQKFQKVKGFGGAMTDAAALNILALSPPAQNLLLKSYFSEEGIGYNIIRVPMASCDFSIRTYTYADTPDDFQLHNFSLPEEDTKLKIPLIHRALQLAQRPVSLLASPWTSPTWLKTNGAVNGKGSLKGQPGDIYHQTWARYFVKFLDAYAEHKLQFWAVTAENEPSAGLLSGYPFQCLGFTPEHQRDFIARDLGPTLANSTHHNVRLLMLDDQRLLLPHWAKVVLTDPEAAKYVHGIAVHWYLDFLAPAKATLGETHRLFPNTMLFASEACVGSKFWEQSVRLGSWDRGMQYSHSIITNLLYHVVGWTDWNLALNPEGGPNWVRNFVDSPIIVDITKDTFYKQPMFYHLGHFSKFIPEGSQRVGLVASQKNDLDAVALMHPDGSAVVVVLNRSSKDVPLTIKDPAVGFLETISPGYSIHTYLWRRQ
Chain of Luciferin 4-monooxygenase (P08659 whole entry): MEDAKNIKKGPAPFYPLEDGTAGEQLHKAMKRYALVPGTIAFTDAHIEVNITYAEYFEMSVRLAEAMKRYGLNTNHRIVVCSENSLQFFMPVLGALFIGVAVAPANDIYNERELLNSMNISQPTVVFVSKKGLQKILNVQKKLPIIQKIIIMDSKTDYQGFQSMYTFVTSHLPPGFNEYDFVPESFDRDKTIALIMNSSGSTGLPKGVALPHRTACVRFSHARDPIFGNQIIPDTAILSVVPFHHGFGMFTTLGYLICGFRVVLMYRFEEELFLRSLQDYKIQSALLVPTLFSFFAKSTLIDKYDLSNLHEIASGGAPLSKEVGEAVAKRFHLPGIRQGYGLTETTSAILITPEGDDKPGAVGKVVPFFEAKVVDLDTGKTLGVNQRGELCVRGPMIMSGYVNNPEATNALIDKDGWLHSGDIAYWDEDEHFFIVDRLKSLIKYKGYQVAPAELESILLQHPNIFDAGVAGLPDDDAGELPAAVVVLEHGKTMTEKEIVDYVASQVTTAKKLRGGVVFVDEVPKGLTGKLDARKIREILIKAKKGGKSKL
Chain of DNA dC->dU-editing enzyme APOBEC-3G (Q9HC16 whole entry): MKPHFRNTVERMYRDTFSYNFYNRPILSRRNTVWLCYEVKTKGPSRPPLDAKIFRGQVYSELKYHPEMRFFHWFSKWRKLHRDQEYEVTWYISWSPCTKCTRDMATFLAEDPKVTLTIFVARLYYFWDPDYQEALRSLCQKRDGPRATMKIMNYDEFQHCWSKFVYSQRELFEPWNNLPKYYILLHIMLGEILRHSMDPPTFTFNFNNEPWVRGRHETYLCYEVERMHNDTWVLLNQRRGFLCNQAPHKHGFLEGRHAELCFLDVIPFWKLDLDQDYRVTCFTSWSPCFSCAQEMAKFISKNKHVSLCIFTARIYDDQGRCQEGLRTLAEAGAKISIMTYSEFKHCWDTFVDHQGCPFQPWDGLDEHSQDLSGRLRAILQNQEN
Chain of Photoreceptor-specific nuclear receptor (Q9Y5X4 whole entry): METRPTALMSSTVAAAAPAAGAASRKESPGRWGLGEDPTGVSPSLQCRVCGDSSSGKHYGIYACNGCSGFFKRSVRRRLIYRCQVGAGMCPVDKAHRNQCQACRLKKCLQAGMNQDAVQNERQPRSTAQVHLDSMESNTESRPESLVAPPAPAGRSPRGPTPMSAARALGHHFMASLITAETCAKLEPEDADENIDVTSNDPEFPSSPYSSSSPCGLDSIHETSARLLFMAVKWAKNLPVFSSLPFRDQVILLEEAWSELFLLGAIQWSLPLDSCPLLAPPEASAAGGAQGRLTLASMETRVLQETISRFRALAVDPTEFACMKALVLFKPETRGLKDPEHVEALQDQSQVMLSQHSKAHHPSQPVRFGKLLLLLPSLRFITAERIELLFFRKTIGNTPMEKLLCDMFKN
Chain of Cytochrome P450 2C9 (P11712 whole entry): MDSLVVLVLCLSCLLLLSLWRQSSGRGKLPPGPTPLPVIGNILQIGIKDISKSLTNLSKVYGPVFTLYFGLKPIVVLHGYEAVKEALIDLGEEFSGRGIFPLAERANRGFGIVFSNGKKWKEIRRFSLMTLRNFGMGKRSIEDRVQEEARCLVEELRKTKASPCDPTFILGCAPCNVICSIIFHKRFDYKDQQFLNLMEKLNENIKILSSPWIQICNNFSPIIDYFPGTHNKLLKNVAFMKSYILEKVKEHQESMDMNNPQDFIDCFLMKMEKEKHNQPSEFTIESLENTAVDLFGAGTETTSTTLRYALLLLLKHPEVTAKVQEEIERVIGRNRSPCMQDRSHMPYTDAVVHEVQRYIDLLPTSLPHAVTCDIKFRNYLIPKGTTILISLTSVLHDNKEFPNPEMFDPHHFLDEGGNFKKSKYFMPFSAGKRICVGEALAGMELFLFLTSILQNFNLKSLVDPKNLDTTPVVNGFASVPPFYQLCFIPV

For `CCCC(=O)C1=C(Nc2ccc(OC)cc2OC)CC(C)(C)CC1=O`, the EC50 [1] was 13.1 µM (active), the EC50 [2] was 550 nM (active) and the EC50 [3] was 29.9 µM (active). The EC50 [4] was 17.3 µM (active), the EC50 [5] was 4.43 µM (active) and the EC50 [6] was 4.69 µM (active). The IC50 [7] was > 80 µM (inactive).

In the case of `COCCCn1c(Cc2csc(Nc3cccc(Cl)c3)n2)nnc1SCC(=O)OC1CCCCC1`, the IC50 [8] is reported as < 1.56 µM (active), the IC50 [9] is reported as 43.4 nM (not active) and the IC50 [10] is reported as 20.8 µM (active). The IC50 [11] was 38.8 µM (active).

In the case of `COc1cccc(CNC(=O)COC(=O)/C(C#N)=C/c2ccc(N(C)C)cc2)c1`, the IC50 [12] is reported as > 39.8 µM (not active) and the IC50 [13] is reported as 29.4 µM (not active).

For `CCOC(=O)c1ccc(NC(=O)CSC2=NC(=O)C(CC)C(=O)N2)cc1` (centres undefined), the EC50 [14] was > 10 µM (not active).

With `Cc1ccc(C(=O)COC(=O)c2ccc3c(c2)C(=O)N(c2cccc4ncccc24)C3=O)cc1C` the IC50 [15] was 7.66 µM (active), the AC50 [16] was 15.8 µM (inconclusive) and the AC50 [17] was 708 nM (inconclusive).

With `Cc1ccc(-n2c(C)cc(C(=O)CSc3nncs3)c2C)cc1` the EC50 [18] was 332 nM (active), the EC50 [19] was < 100 nM (active) and the EC50 [20] was 340 nM (active). For the same compound, the IC50 [21] was > 50 µM (not active) and the EC50 [22] was 346 nM (active).

With `O=C(/C(=N/Nc1cccc([N+](=O)[O-])c1)C(=O)C(F)(F)F)c1ccc(Br)cc1` the EC50 [23] was 12.2 µM (not active), the EC50 [24] was 7.63 µM (active) and the EC50 [25] was 12.1 µM (not active). For the same compound, the EC50 [26] was 6.23 µM (active), the EC50 [27] was 10.6 µM (not active) and the EC50 [28] was 5.97 µM (active). For the same compound, the AC50 [29] was 6.21 µM (active).
